These results are taken from US7375079B2 (priority 1999, dated 2008).

For this assay, the target named is BttxB (Clostridium botulinum, UniProt P10844). The assay is classed as biochemical.
Chain of BttxB (P10844 2-441 limits assumed): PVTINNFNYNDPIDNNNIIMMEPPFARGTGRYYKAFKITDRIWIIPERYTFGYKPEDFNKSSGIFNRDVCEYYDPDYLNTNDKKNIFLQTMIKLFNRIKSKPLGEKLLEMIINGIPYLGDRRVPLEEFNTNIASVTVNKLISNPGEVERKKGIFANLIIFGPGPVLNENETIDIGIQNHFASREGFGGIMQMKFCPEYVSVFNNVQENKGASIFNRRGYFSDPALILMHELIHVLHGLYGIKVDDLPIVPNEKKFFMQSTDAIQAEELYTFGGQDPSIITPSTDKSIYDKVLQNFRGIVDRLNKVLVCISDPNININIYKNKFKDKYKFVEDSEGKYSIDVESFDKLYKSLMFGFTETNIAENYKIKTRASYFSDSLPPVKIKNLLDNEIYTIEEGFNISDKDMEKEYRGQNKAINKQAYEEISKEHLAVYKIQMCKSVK

As for `CC(C)C[C@H](NC(=O)CNC(=O)[C@H](C)NC(=O)[C@H](CCCNC(=N)N)NC(=O)[C@H](CO)NC(=O)[C@H](CO)NC(=O)[C@H](CCCNC(=N)N)NC(=O)[C@@H](NC(=O)[C@H](CCCCN)NC(=O)[C@H](C)NC(=O)[C@H](CCCCN)NC(=O)[C@H](C)NC(=O)[C@H](CCCNC(=N)N)NC(=O)[C@@H](NC(=O)[C@H](CCCCN)NC(=O)CNC(=O)CNC(=O)[C@H](CCC(N)=O)NC(=O)[C@H](CCCCN)NC(=O)CNC(=O)[C@H](CCCNC(=N)N)NC(=O)CNC(=O)[C@H](C)N)C(C)C)[C@@H](C)O)C(=O)N[C@@H](CCC(N)=O)C(=O)N[C@@H](Cc1ccccc1)C(=O)N1CCC[C@H]1C(=O)N[C@H](C(=O)NCC(=O)N[C@@H](CCCNC(=N)N)C(=O)N[C@H](C(=O)N[C@@H](Cc1c[nH]cn1)C(=O)N[C@@H](CCCNC(=N)N)C(=O)N[C@@H](CC(C)C)C(=O)N[C@@H](CC(C)C)C(=O)N[C@@H](CCCNC(=N)N)C(=O)N[C@@H](CCCCN)C(=O)NCC(=O)N[C@@H](CC(N)=O)C(=O)N[C@@H](Cc1ccc(O)cc1)C(=O)O)C(C)C)C(C)C` [B-I], the “substrate of BttxB or not” value is on record as “not a substrate”.
As for “AGRGKQGGKVRAKAKTRSSRAGLQFPVGRVHRLLRK [Peptide 36]”, the “effectiveness as inhibitor of BttxB activity relative to B-I” value is recorded as “about 50%”.
As for RPKPQQFFGLM [Substance P], the “inhibition of BttxB (in words)” value was “inhibitor”.
